Laboratory results taken from patent publication US8822513B2, “Compounds for treatment of cancer” (GTX, Inc., priority 2010, dated 2014).
Like-named read-outs stand apart in the source and are kept apart here.

How the values were obtained:
[1] = system: prostate cancer cell lines (LNCaP, PC-3, DU-145, PPC-1); experiment: SRB cytotoxicity, prostate cancer cell lines (panel statements); conditions: Homo sapiens, read-out: IC50 against prostate cancer cells
Bovine brain tubulin = experiment: In vitro tubulin polymerization assay (bovine brain tubulin); type: biochemical
Description: The spectrophotometer was maintained at 37° C. for tubulin polymerization.

[2] = system: tubulin (colchicine, vinblastine, paclitaxel binding sites); experiment: MS competitive binding assay
From the text: Each reaction was run in triplicate.

[3] = Rotarod test (in vivo neurotoxicity); parameters: species or system mouse; conditions: ICR mice; 1h 5 or 15 mg/kg, vinblastine 0.5 mg/kg, i.p. daily
Description: ICR mice received training three times a day for two days to enable them to stay on the rotating rod for >120 seconds at 12 rpm. Mice were then randomized by the length of time that they could stay on the rotating rod and divided into 7-8 mice per group. […] The rotarod test was performed twice a week. […] The rod speed was increased from […] to 40 rpm over a period of 5 min. Performance was measured as the length of time that a mouse could stay on the rotating rod.

[4] = Metabolic stability in human liver microsomes; conditions: for Half life in Human liver microsome: Table 20
A375 melanoma xenografts = experiment: In vivo efficacy, A375 melanoma xenograft in nude mice (SMART compounds); parameters: species or system mouse; conditions: 15 mg/kg i.p.
[5] = ICR mice, 4 consecutive days i.p.
PC-3 cells [6] = experiment: Apoptosis detection by ELISA (cytoplasmic DNA-histone complexes), PC-3; type: cell-based, human; conditions: PC-3 and A375 cells, 24 h
From the text: The levels of DNA-histone complexes were used to represent cell apoptosis.
Quantification of the enrichment of mono- and oligonucleosomes in the cytoplasm was used to determine the ability of the compounds to induce apoptosis (cell death detection ELISA PLUS, Roche, Germany) following the manufacturer's instructions.

PC-3 xenografts = experiment: In vivo efficacy, PC-3 prostate tumor xenograft in nude mice; conditions: 50 mg/kg i.p.
LNCaP cells = experiment: SRB cytotoxicity assay, LNCaP; type: cell-based, human; conditions: read-out: IC50 ± SEM LNCaP
From the text: (§1) Cells were stained with SRB solution.

A375 melanoma cells = experiment: SRB cytotoxicity assay, A375; type: cell-based, human; conditions: read-out: IC50 ± SEM A375
NCI/ADR-RES cells = experiment: SRB cytotoxicity assay, NCI/ADR-RES (P-gp over-expressing); type: cell-based; conditions: Homo sapiens
[7] = system: three melanoma cell lines and four human prostate cancer cell lines; experiment: SRB cytotoxicity, melanoma and prostate cancer cell lines (ranges and averages over the panel); type: cell-based; conditions: Homo sapiens; text on Tables 2, 3, 12, 21; read-out: IC50 (range over cell lines)
[8] = Aqueous solubility, Multiscreen Solubility Filter Plate, PBS pH 7.4; type: physicochemical; conditions: HCl salt, vs 1h
[9] = Pharmacokinetic study in Sprague-Dawley rats; conditions: rat
[10] = Metabolic stability in mouse liver microsomes; type: in vitro ADME; conditions: Table 20
[11] = Metabolic stability in rat liver microsomes; type: in vitro ADME; conditions: Table 20
[12] = Metabolic stability in dog liver microsomes; type: in vitro ADME; conditions: Table 20
[13] = Metabolic stability in monkey liver microsomes; type: in vitro ADME; conditions: Table 20
PC-3 cells [14] = system: PC-3 cells
From the text: as §1
Cells were stained with sulphorhodamine B (SRB) solution.

DU 145 cells = experiment: SRB cytotoxicity assay, DU 145; type: cell-based, human; conditions: Table 12; 96 h; read-out: IC50 ± SEM Du 145
From the text: as §1

PPC-1 cells = system: PPC-1 cells
From the text: as §1

B16-F1 melanoma cells = experiment: SRB cytotoxicity assay, B16-F1; type: cell-based, mouse
WM-164 melanoma cells = experiment: SRB cytotoxicity assay, WM-164; type: cell-based, human; conditions: Table 12; 48 h; read-out: IC50 ± SEM WM164
PC-3/TxR cells [15] = system: PC-3/TxR cells
PC-3/TxR cells [16] = experiment: SRB cytotoxicity assay, paclitaxel-resistant PC-3/TxR; conditions: Table 15; data in parentheses; IC50 values in PC-3 and PC-3/TxR compared
B16-F1 melanoma tumors = experiment: In vivo efficacy, B16-F1 melanoma in C57/BL mice; parameters: species or system mouse; conditions: 60 mg/kg i.p. daily, 14 days
Description: Female C57/BL mice, age 4-6 weeks, were purchased from Harlan Laboratories (Harlan Laboratories Inc., Indianapolis, Ind.). The animal housing met the Association for Assessment and Accreditation and Laboratory Animal Care specifications. All of the procedures were conducted in accordance with guidelines of our Institutional Animal Care and Use Committee.
Tumor volume was expressed in cubic millimeters.

[17] = Pharmacokinetic study in ICR mice; conditions: 15 mg/kg i.v.
[18] = Table 12, 48 h, read-out: IC50 ± SEM B16-F1

Question: For COc1cc(C(=O)c2cccc(-c3ccccc3)n2)cc(OC)c1OC [1c, (6-Phenylpyridin-2-yl)(3,4,5-trimethoxyphenyl)methanone], which IC50 [1] is on record?
Answer: 12 to 35 nM

Question: With COc1cc(C(=O)c2csc(-c3ccccc3)n2)cc(OC)c1OC [1h, (2-Phenyl-thiazol-4-yl)-(3,4,5-trimethoxy-phenyl)-methanone] as the molecule, how does the “inhibition of tubulin polymerization” value (Bovine brain tubulin; 10 μM (Example 22)) read?
Answer: 90%

Question: What about the “inhibition of tubulin polymerization” value (Bovine brain tubulin; 10 μM, after 20 min, vs vehicle) of the same molecule?
Answer: 47%

Question: And the “competition with colchicine-tubulin binding” value [2]?
Answer: specifically competed with colchicine binding to tubulin

Question: What about the “time on the rotating rod vs vehicle group” value [3] of the same molecule?
Answer: no significant difference

Question: And the “Half-life in HLM (Phase I + II)” value ([4]; Table 16B, Phase I + II (UDP-glucuronic acid present))?
Answer: 17 min

Question: And the “Half life in Human liver microsome” value [4]?
Answer: 17 min

Question: For COc1cc(C(=O)c2csc(-c3ccc(F)cc3)n2)cc(OC)c1OC [2k], which “inhibition of tubulin polymerization” value (Bovine brain tubulin; 10 μM (Example 22)) is on record?
Answer: 90%

Question: And the “% T/C” value (A375 melanoma xenografts)?
Answer: 29%

Question: What about the “dose not causing greater than 10% loss of body weight” value [5] of the same molecule?
Answer: ≤ 15 mg/kg

Question: For COc1cc(C(=O)c2csc(-c3ccc(O)cc3)n2)cc(OC)c1OC [2l, (2-(4-Hydroxyphenyl)thiazol-4-yl)(3,4,5-trimethoxyphenyl)methanone], which “inhibition of tubulin polymerization” value (Bovine brain tubulin; 10 μM (Example 22)) is on record?
Answer: 55%

Question: And the concentration inducing apoptosis (PC-3 cells [6])?
Answer: greater than or equal to 200 nM

Question: And the “% T/C” value (PC-3 xenografts)?
Answer: 34%

Question: For COc1cc(C(=O)c2csc(-c3ccc(CC(N)=O)cc3)n2)cc(OC)c1OC [2q], which IC50 (LNCaP cells; Table 6) is on record?
Answer: > 10000 nM

Question: And the IC50 (A375 melanoma cells; Table 6)?
Answer: > 20000 nM

Question: What does the source list for COc1cc(C(=O)c2csc(-c3ccc(CN)cc3)n2)cc(OC)c1OC.Cl [2r, (2-(4-(Aminomethyl)phenyl)thiazol-4-yl)(3,4,5-trimethoxyphenyl)methanone hydrochloride]?
Answer: IC50 (NCI/ADR-RES cells; Table 5A, P-gp over-expressed, read-out: IC50 NCI/ADR-RES): 11 ± 2 nM; IC50 [7]: 13 to 80 nM; increase of solubility [8]: over 35 fold

Question: For COc1cc(C(=O)c2csc(Nc3ccc(F)cc3)n2)cc(OC)c1OC.Cl [5Hc, (2-(p-Fluorophenylamino)thiazol-4-yl)(3,4,5-trimethoxyphenyl)methanone hydrochloride salt], which “increased exposure (AUC) by the oral route compared to 1h” value [9] is on record?
Answer: more than 4.3 fold

Question: Which “Half life in Mouse liver microsome” value [10] does the source give for COc1cc(-c2nccc3ccc(-c4ccc5[nH]ccc5c4)cc23)cc(OC)c1OC [6a] here?
Answer: 3.43 min

Question: What about the “Half life in Rat liver microsome” value [11] of the same molecule?
Answer: 12 min

Question: What about the “Half life in Dog liver microsome” value [12] of the same molecule?
Answer: 13 min

Question: What about the “Half life in Monkey liver microsome” value [13] of the same molecule?
Answer: 16 min

Question: And the “Half life in Human liver microsome” value [4]?
Answer: 32 min

Question: With c1cc2ccc(-c3ccc4[nH]ccc4c3)cc2c(-c2ccc3[nH]ccc3c2)n1 [6b, 1,7-Bis-(1H-indol-5-yl)-isoquinoline] as the molecule, how does the “Half life in Mouse liver microsome” value [10] read?
Answer: 10 min

Question: And the “Half life in Rat liver microsome” value [11]?
Answer: 9 min

Question: And the “Half life in Dog liver microsome” value [12]?
Answer: 30 min

Question: And the “Half life in Monkey liver microsome” value [13]?
Answer: 13 min

Question: What about the “Half life in Human liver microsome” value [4] of the same molecule?
Answer: 40 min

Question: For Fc1ccc(-c2nccc3ccc(-c4ccc5[nH]ccc5c4)cc23)cc1 [6c, 1-(4-Fluoro-phenyl)-7-(1H-indol-5-yl)-isoquinoline], which “Half life in Mouse liver microsome” value [10] is on record?
Answer: 13 min

Question: And the “Half life in Rat liver microsome” value [11]?
Answer: 14 min

Question: What about the “Half life in Dog liver microsome” value [12] of the same molecule?
Answer: 29 min

Question: What about the “Half life in Monkey liver microsome” value [13] of the same molecule?
Answer: 9 min

Question: And the “Half life in Human liver microsome” value [4]?
Answer: 47 min

Question: Which IC50 (NCI/ADR-RES cells; Table 12, read-out: IC50 ± SEM NCl/ADR-RES) does the source give for COc1cc(C(=O)c2c[nH]c(-c3ccc(Cl)cc3)n2)cc(OC)c1OC [12fa, (2-(4-chlorophenyl)-1H-imidazol-4-yl)(3,4,5-trimethoxyphenyl)methanone] here?
Answer: 19 nM

Question: What about the “Half-life in HLM (Phase I)” value ([4]; Table 16B, Phase I) of the same molecule?
Answer: 44 min

Question: For O=C(c1ccc(F)cc1)c1c[nH]c(-c2ccc(O)cc2)n1 [12kb], which IC50 (LNCaP cells; Table 12, 96 h) is on record?
Answer: > 10000 nM

Question: And the IC50 (PC-3 cells [14]; read-out: IC50 ± SEM PC-3, Table 12, 96 h)?
Answer: > 10000 nM

Question: What about the IC50 (DU 145 cells) of the same molecule?
Answer: > 10000 nM

Question: What about the IC50 (PPC-1 cells; read-out: IC50 ± SEM PPC-1, Table 12, 96 h) of the same molecule?
Answer: > 10000 nM

Question: And the IC50 (A375 melanoma cells; Table 12, 48 h)?
Answer: 10000 nM

Question: And the IC50 (B16-F1 melanoma cells; [18])?
Answer: > 10000 nM

Question: And the IC50 (WM-164 melanoma cells)?
Answer: > 10000 nM

Question: For O=C(c1cc(O)c(O)c(O)c1)c1c[nH]c(-c2ccc(O)c(O)c2)n1 [13ha], which IC50 (A375 melanoma cells; Table 12, 48 h) is on record?
Answer: > 10000 nM

Question: And the IC50 (B16-F1 melanoma cells; [18])?
Answer: > 10000 nM

Question: And the IC50 (WM-164 melanoma cells)?
Answer: > 10000 nM

Question: Which results are given for COc1cc(C(=O)c2cn(S(=O)(=O)c3ccccc3)c(-c3cn(S(=O)(=O)c4ccccc4)c4ccccc34)n2)cc(OC)c1OC [17yaa, (1-(phenylsulfonyl)-2-(1-(phenylsulfonyl)-1H-indol-3-yl)-1H-imidazol-4-yl)(3,4,5-trimethoxyphenyl)methanone]?
Answer: IC50 (PC-3 cells [14]): 5.2 ± 0.2 nM; IC50 (PPC-1 cells): 21 ± 0.1 nM; IC50 (B16-F1 melanoma cells; Table 6A, read-out: IC50 B16-F1): 538 nM; IC50 (PC-3/TxR cells [15]): 2.1 ± 0.1 nM; Resistance factor PC-3/TxR vs PC-3 (PC-3/TxR cells [16]): 0.4

Question: Which tumor volume reduction (B16-F1 melanoma tumors) does the source give for CN(C)/N=N/c1[nH]cnc1C(N)=O [DTIC] here?
Answer: 51%

Question: What does the source list for COc1cc(C(=O)c2csc(-c3ccc(F)cc3)n2)cc(OC)c1OC [SMART-F]?
Answer: T-C (A375 melanoma xenografts; Melanoma (A375) xenograft): 11 days; AUC ([17]; mice): 2100 ng·h/mL

Question: Which “competition with colchicine-tubulin binding” value [2] does the source give for CC[C@]1(O)C[C@@H]2CN(CCc3c([nH]c4ccccc34)[C@@](C(=O)OC)(c3cc4c(cc3OC)N(C)[C@H]3[C@@](O)(C(=O)OC)[C@H](OC(C)=O)[C@]5(CC)C=CCN6CC[C@]43[C@@H]65)C2)C1 [Vinblastine, vinblastine, reference compound] here?
Answer: did not inhibit the colchicine-tubulin binding

Question: What about the “time on the rotating rod vs vehicle group” value [3] of the same molecule?
Answer: gradually reduced the time

Question: Which results are given for O=C(c1ccc2[nH]ccc2c1)c1csc(-c2cc3ccccc3[nH]2)n1 [compound 21, (2-(1H-indol-2-yl)thiazol-4-yl)(1H-indol-5-yl)methanone]?
Answer: IC50 [7]: 76 to 116 nM; times higher Vss than 1h and 2k ([17]; ICR mice): 2-3 times
